Source: patent publication US20250115598A1 (Anaxis Pharma Pty Ltd, priority 2021, published 2025)
Where two headings read alike, the source gives them in different places.

What was measured:
[1] = test system: U937 human histiocytic leukemia cell line; assay: Cellular assay: inhibition of TSQ induced necroptosis, CellTitre-Glo viability; conditions: U937 cells, 48 hours, TSQ cocktail, read-out: Inhibition of TSQ-induced necroptosis (IC50 cell-based assay)
Method in brief: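 U937 cells (20,000/well) treated with compound (10-point, 36 μM top, 1:3) plus TSQ cocktail (hTNF-Fc 100 ng/ml, Smac mimetic 500 nM, Q-VD-OPh 10 μM), 48 h at 37° C., 0.3% DMSO. Viability by CellTitre-Glo ATP luminescence; counter screen without TSQ measured compound-only effects on viability.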

U937 cells = assay: Counter screen: cell viability without the TSQ cocktail (off-target effect); design: species or system human
Method in brief: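 U937 cells (20000/well, HT-RPMI + 7.4% FBS) treated with compound (10-point 1:3 dilution from 36 μM, 0.3% DMSO) without the TSQ cocktail for 48 h at 37 °C/5% CO2. Viability read as ATP by CellTiter-Glo luminescence, flagging off-target cytotoxicity.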

human MLKL (full length) = human MLKL (full length) (Homo sapiens (Human), UniProt Q8NB16); assay: KINOMEscan binding assay, human MLKL (full length)
human MLKL (full length), sequence (Q8NB16 whole entry): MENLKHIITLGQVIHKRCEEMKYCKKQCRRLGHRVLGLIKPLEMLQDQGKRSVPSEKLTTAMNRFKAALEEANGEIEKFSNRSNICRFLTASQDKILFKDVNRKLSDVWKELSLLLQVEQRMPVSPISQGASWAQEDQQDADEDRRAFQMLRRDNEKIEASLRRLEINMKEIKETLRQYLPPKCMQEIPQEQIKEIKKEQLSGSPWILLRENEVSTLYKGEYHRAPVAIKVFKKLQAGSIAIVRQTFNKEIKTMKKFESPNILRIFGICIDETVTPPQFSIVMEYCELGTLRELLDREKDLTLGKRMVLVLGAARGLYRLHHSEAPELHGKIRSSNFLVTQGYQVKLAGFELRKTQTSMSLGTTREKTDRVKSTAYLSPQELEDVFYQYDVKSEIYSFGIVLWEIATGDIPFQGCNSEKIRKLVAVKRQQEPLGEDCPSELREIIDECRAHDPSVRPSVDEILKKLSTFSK
Method in brief: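 In this assay, compounds displace DNA- or phage-tagged kinase from an immobilized ligand, and eluted kinase is quantified by qPCR.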

[2] = Homo sapiens, U-937, Table 26, read-out: Off-target effect (IC50 cell-based assay)
[3] = hMLKL, Table 25, read-out: MLKL (KD)
[4] = Table 23, read-out: Off-target effect (IC50 cell-based assay)
[5] = KINOMEscan, Table 21, read-out: Human MLKL (full-length) (KD)

| Compound | Kd (human MLKL (full length); [3]) [nM] | Kd (human MLKL (full length); [5]) [nM] | IC50 ([1]; Homo sapiens, U-937, Table 26) [nM] | IC50 (U937 cells; [2]) [nM] | IC50 ([1]; Table 23) [nM] | IC50 (U937 cells; [4]) [nM] |
| --- | --- | --- | --- | --- | --- | --- |
| Cc1ncsc1-c1ccc(CNC(=O)[C@@H]2C[C@@H](O)CN2C(=O)[C@@H](NC(=O)COCCN2CCCC(n3cc(-c4cnc(N)c5c(-c6ccc(NS(=O)(=O)C(F)F)c(O[C@@H](C)c7ccc(F)cc7)c6)nn(C)c45)cn3)C2)C(C)(C)C)cc1 (stereo partly drawn) [Compound 1015, (2S,4R)-1-[(2S)-2-(2-{2-[3-(4-{4-amino-3-[4-(difluoromethanesulfonamido)-3-[(1S)-1-(4-fluorophenyl)ethoxy]phenyl]-1-methyl-1H-pyrazolo[4,3-c]pyridin-7-yl}-1H-pyrazol-1-yl)piperidin-1-yl]ethoxy}acetamido)-3,3-dimethylbutanoyl]-4-hydroxy-N-{[4-(4-methyl-1,3-thiazol-5-yl)phenyl]methyl}pyrrolidine-2-carboxamide] | < 10 | – | < 1000 | > 10000 | – | – |
| Cc1ncsc1-c1ccc(CNC(=O)[C@@H]2C[C@@H](O)CN2C(=O)[C@@H](NC(=O)CCN2CCCC(n3cc(-c4cnc(N)c5c(-c6ccc(NS(=O)(=O)C(F)F)c(O[C@@H](C)c7ccc(F)cc7)c6)nn(C)c45)cn3)C2)C(C)(C)C)cc1 (stereo partly drawn) [Compound 1014, (2S,4R)-1-[(2S)-2-{3-[3-(4-{4-amino-3-[4-(difluoromethanesulfonamido)-3-[(1S)-1-(4-fluorophenyl)ethoxy]phenyl]-1-methyl-1H-pyrazolo[4,3-c]pyridin-7-yl}-1H-pyrazol-1-yl)piperidin-1-yl]propanamido}-3,3-dimethylbutanoyl]-4-hydroxy-N-{[4-(4-methyl-1,3-thiazol-5-yl)phenyl]methyl}pyrrolidine-2-carboxamide] | – | – | < 1000 | > 10000 | – | – |
| N-(4-(4-amino-1-methyl-7-(1-(1,2,2-trimethylpiperidin-4-yl)-1H-pyrazol-4-yl)-1H-pyrazolo[4,3-c]pyridin-3-yl)-2-((S)-1-(4-fluorophenyl)ethoxy)phenyl)-1,1-difluoromethanesulfonamide [Compound 113] | – | < 1 | – | – | < 10 | > 10000 |
| Cc1ncsc1-c1ccc(CNC(=O)[C@@H]2C[C@@H](O)CN2C(=O)[C@@H](NC(=O)CCCCCCn2cc(-c3cnc(N)c4c(-c5ccc(NS(=O)(=O)C(F)F)c(O[C@@H](C)c6ccc(F)cc6)c5)nn(C)c34)cn2)C(C)(C)C)cc1 [Compound 1008, (2S,4R)-1-[(2S)-2-[7-(4-{4-amino-3-[4-(difluoromethanesulfonamido)-3-[(1 S)-1-(4-fluorophenyl)ethoxy]phenyl]-1-methyl-1H-pyrazolo[4,3-c]pyridin-7-yl}-1H-pyrazol-1-yl)heptanamido]-3,3-dimethylbutanoyl]-4-hydroxy-N-{[4-(4-methyl-1,3-thiazol-5-yl)phenyl]methyl}pyrrolidine-2-carboxamide] | < 10 | – | < 1000 | 1000 to 10000 | – | – |

More lines, main results first:

| Kd (human MLKL (full length); [3]) [nM] | Kd (human MLKL (full length); [5]) [nM] | Compound | IC50 ([1]; Homo sapiens, U-937, Table 26) [nM] | IC50 (U937 cells; [2]) [nM] | IC50 ([1]; Table 23) [nM] | IC50 (U937 cells; [4]) [nM] |
| --- | --- | --- | --- | --- | --- | --- |
| < 10 | – | Cc1ncsc1-c1ccc(CNC(=O)[C@@H]2C[C@@H](O)CN2C(=O)[C@@H](NC(=O)COCCN2CCC(n3cc(-c4cnc(N)c5c(-c6ccc(NS(=O)(=O)C(F)F)c(O[C@@H](C)c7ccc(F)cc7)c6)nn(C)c45)cn3)CC2)C(C)(C)C)cc1 [Compound 1018, (2S,4R)-1-[(2S)-2-(2-{2-[4-(4-{4-amino-3-[4-(difluoromethanesulfonamido)-3-[(1S)-1-(4-fluorophenyl)ethoxy]phenyl]-1-methyl-1H-pyrazolo[4,3-c]pyridin-7-yl}-1H-pyrazol-1-yl)piperidin-1-yl]ethoxy}acetamido)-3,3-dimethylbutanoyl]-4-hydroxy-N-{[4-(4-methyl-1,3-thiazol-5-yl)phenyl]methyl}pyrrolidine-2-carboxamide] | < 1000 | > 10000 | – | – |
| 10 to 1000 | – | C[C@H](Oc1cc(-c2nn(C)c3c(-c4cnn(CCCCCCCOc5cccc6c5C(=O)N(C5CCC(=O)NC5=O)C6=O)c4)cnc(N)c23)ccc1NS(=O)(=O)C(F)F)c1ccc(F)cc1 (stereo partly shown) [Compound 1031, N-(4-{4-amino-7-[1-(7-{[2-(2,6-dioxopiperidin-3-yl)-1,3-dioxo-2,3-dihydro-1H-isoindol-4-yl]oxy}heptyl)-1H-pyrazol-4-yl]-1-methyl-1H-pyrazolo[4,3-c]pyridin-3-yl}-2-[(1 S)-1-(4-fluorophenyl)ethoxy]phenyl)-1,1-difluoromethanesulfonamide] | < 1000 | – | – | – |
| – | 1 to 100 | Nc1ncc(-c2cnn(C3CCOCC3)c2)c2[nH]nc(-c3ccc(NS(=O)(=O)C(F)F)c(OCc4cccc(Cl)c4)c3)c12 [Compound 131] | – | – | 10 to 1000 | > 10000 |
| < 10 | – | Cc1ncsc1-c1ccc(CNC(=O)[C@@H]2C[C@@H](O)CN2C(=O)[C@@H](NC(=O)COCCOCCn2cc(-c3cnc(N)c4c(-c5ccc(NS(=O)(=O)C(F)F)c(O[C@@H](C)c6ccc(F)cc6)c5)nn(C)c34)cn2)C(C)(C)C)cc1 [Compound 1006, (2S,4R)-1-[(2S)-2-(2-{2-[2-(4-{4-amino-3-[4-(difluoromethanesulfonamido)-3-[(1S)-1-(4-fluorophenyl)ethoxy]phenyl]-1-methyl-1H-pyrazolo[4,3-c]pyridin-7-yl}-1H-pyrazol-1-yl)ethoxy]ethoxy}acetamido)-3,3-dimethylbutanoyl]-4-hydroxy-N-{[4-(4-methyl-1,3-thiazol-5-yl)phenyl]methyl}pyrrolidine-2-carboxamide] | < 1000 | 1000 to 10000 | – | – |
